Experimental data taken from the supplement of paper PMC4862054.

What was measured:
Settings in all cases: incubation time: 72 h
CAL-51 [1] = assay: normalised response (% of control), CellTox Green; higher = less cell death (100 = DMSO, 0 = benzethonium chloride kill control)
Outline: (§1)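 The table gives the normalised signal for a single concentration in each entry. Breast cancer cell lines were seeded (20 µl suspension) into 384-well plates holding compound at 5 concentrations in 10-fold steps over a compound-specific 10,000-fold range and incubated 72 h, then read for CellTox Green fluorescence (485/520 nm) and CellTiter-Glo luminescence. Normalisation on each plate used 0.1 % DMSO (100) and a positive kill control (0).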

Hs578T [2] = assay: as above
Outline: as §1

HDQ-P1 [3] = assay: as above
Outline: as §1

MDA-MB-453 [4] = assay: as above
Outline: as §1

MCF-10A [5] = assay: as above
Outline: as §1

CAL-85-1 [6] = assay: as above
Outline: as §1

MDA-MB-231 [7] = assay: as above
Outline: as §1

BT-549 [8] = assay: as above
Outline: as §1

HCC1143 [9] = assay: as above
Outline: as §1

HCC1937 [10] = assay: as above
Outline: as §1

MDA-MB-468 [11] = assay: as above
Outline: as §1

MFM-223 [12] = assay: as above
Outline: as §1

CAL-120 [13] = assay: as above
Outline: as §1

DU-4475 [14] = assay: as above
Outline: as §1

MDA-MB-436 [15] = assay: as above
Outline: as §1

BT-474 [16] = assay: as above
Outline: as §1

HCC1599 [17] = assay: as above
Outline: as §1

CAL-51 [18] = assay: normalised response (% of control), CellTiter-Glo; higher = more viable cells (100 = DMSO, 0 = benzethonium chloride kill control)
Procedure: (§2)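 DSRT, 72 h incubation, CellTox Green / CellTiter-Glo readout. Signal is normalised to DMSO and benzethonium chloride controls. Value is the normalised response at dose 3.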

Hs578T [19] = assay: as above
Procedure: as §2

HDQ-P1 [20] = assay: as above
Procedure: as §2

MDA-MB-453 [21] = assay: as above
Procedure: as §2

CAL-148 [22] = assay: as above
Procedure: as §2

SK-BR-3 = assay: as above
Procedure: as §2

MCF-10A [23] = assay: as above
Procedure: as §2

CAL-85-1 [24] = assay: as above
Procedure: as §2

MDA-MB-231 [25] = assay: as above
Procedure: as §2

BT-549 [26] = assay: as above
Procedure: as §2

HCC1143 [27] = assay: as above
Procedure: as §2

HCC1937 [28] = assay: as above
Procedure: as §2

MDA-MB-468 [29] = assay: as above
Procedure: as §2

MFM-223 [30] = assay: as above
Procedure: as §2

CAL-120 [31] = assay: as above
Procedure: as §2

DU-4475 [32] = assay: as above
Procedure: as §2

MDA-MB-436 [33] = assay: as above
Procedure: as §2

BT-474 [34] = assay: as above
Procedure: as §2

HCC1599 [35] = assay: as above
Procedure: as §2

CAL-148 [36] = assay: normalised response (% of control), CellTox Green; higher = less cell death (100 = DMSO, 0 = benzethonium chloride kill control)
Outline: as §1

Row | SMILES | normalised response (CAL-51 [1]) [%] | normalised response (Hs578T [2]) [%] | normalised response (HDQ-P1 [3]) [%] | normalised response (MDA-MB-453 [4]) [%] | normalised response (MCF-10A [5]) [%] | normalised response (CAL-85-1 [6]) [%] | normalised response (MDA-MB-231 [7]) [%] | normalised response (BT-549 [8]) [%] | normalised response (HCC1143 [9]) [%] | normalised response (HCC1937 [10]) [%] | normalised response (MDA-MB-468 [11]) [%] | normalised response (MFM-223 [12]) [%] | normalised response (CAL-120 [13]) [%] | normalised response (DU-4475 [14]) [%] | normalised response (MDA-MB-436 [15]) [%] | normalised response (BT-474 [16]) [%] | normalised response (HCC1599 [17]) [%] | normalised response (CAL-51 [18]) [%] | normalised response (Hs578T [19]) [%] | normalised response (HDQ-P1 [20]) [%] | normalised response (MDA-MB-453 [21]) [%] | normalised response (CAL-148 [22]) [%] | normalised response (SK-BR-3) [%] | normalised response (MCF-10A [23]) [%] | normalised response (CAL-85-1 [24]) [%] | normalised response (MDA-MB-231 [25]) [%] | normalised response (BT-549 [26]) [%] | normalised response (HCC1143 [27]) [%] | normalised response (HCC1937 [28]) [%] | normalised response (MDA-MB-468 [29]) [%] | normalised response (MFM-223 [30]) [%] | normalised response (CAL-120 [31]) [%] | normalised response (DU-4475 [32]) [%] | normalised response (MDA-MB-436 [33]) [%] | normalised response (BT-474 [34]) [%] | normalised response (HCC1599 [35]) [%] | normalised response (CAL-148 [36]) [%]
1 | CC[C@@H]1C(=O)N(C)c2cnc(Nc3ccc(C(=O)NC4CCN(C)CC4)cc3OC)nc2N1C1CCCC1 [BI 2536] (10 nM) | 51.3 | 89.4 | 55.5 | 101 | 64.3 | 65.3 | 10.1 | -328 | 97.8 | 116 | 56.6 | 73 | 88.2 | 97.5 | 51.6 | 78.1 | 101 | 67.2 | 83.9 | 78.4 | 70.5 | 55.6 | 15.6 | 82.4 | 43.9 | 51.4 | 37 | 55.7 | 84.8 | 37.3 | 44.3 | 70.5 | 85.2 | 44.2 | 74.3 | 92.6 | 
2 | C=CC(=O)Nc1cc2c(Nc3ccc(F)c(Cl)c3)ncnc2cc1OCCCN1CCOCC1 [Canertinib] (100 nM) | 98.2 | 109 | 51.8 | 102 | 106 | 72.3 | 107 | 75.7 | 94.3 | 108 | 136 | 99.3 | 97.6 | 105 | 107 | 84.4 | 114 | 60.2 | 97.4 | 70.9 | 91.9 | 97.5 | 46.4 | 43.9 | 69.1 | 103 | 93.9 | 95.7 | 84.5 | 76.6 | 99.1 | 99.5 | 102 | 96.6 | 95.3 | 85.5 | 104
3 | O=C(O)C1(C(=O)O)CCC1.[NH2-].[NH2-].[Pt+2] [Carboplatin] (100 nM) | 90.7 | 95.5 | 88.8 | 97.6 | 86.2 | 108 | 101 | 78.9 | 89.6 | 75.2 | 61.5 | 96.8 | 104 | 105 | 103 | 103 | 100 | 93.7 | 99.9 | 99 | 94.7 | 102 | 105 | 107 | 98 | 100 | 93 | 101 | 94.2 | 93.9 | 99.2 | 99.1 | 99.5 | 103 | 102 | 87.6 | 103
4 | O=C(/C=C/c1cccnc1)NCCCCC1CCN(C(=O)c2ccccc2)CC1 [Daporinad] (10 nM) | 112 | 21.9 | 105 | 105 | 96 | 105 | 95.4 |  | 58.3 | 101 | 106 | 84.7 | 100 | 101 | 93.7 | 95.6 | 101 | 115 | 18.4 | 74.4 | 21.1 | 115 | 103 | 41.6 | 44.6 | 91.5 | 102 | 45.2 | 42.5 | 1.06 | 5.44 | 56.2 | 30.4 | 105 | 97 | 4.73 | 96.1
5 | Nc1ncn([C@H]2C[C@H](O)[C@@H](CO)O2)c(=O)n1 [Decitabine] (100 nM) | 76 | 109 | 56.6 | 95.8 | 105 | 104 | 91.8 |  | 105 | 91.4 | 89.8 | 107 | 90.5 | 97.5 | 90.2 | 94.3 | 106 | 82.4 | 104 | 94.9 | 107 | 93.1 | 91.2 | 101 | 97.3 | 105 | 92.2 | 104 | 93.2 | 52.5 | 104 | 99.4 | 94.9 | 96.5 | 103 | 113 | 106
6 | Nc1nc(F)nc2c1ncn2[C@@H]1O[C@H](CO)[C@@H](O)[C@@H]1O [Fludarabine] (100 nM) | 109 | 99.5 | 101 | 108 | 98.4 | 101 | 116 |  | 119 | 116 | 131 | 104 | 101 | 105 | 101 | 99.6 | 108 | 94.1 | 107 | 98.8 | 120 | 107 | 108 | 113 | 101 | 119 | 102 | 102 | 98.3 | 113 | 111 | 101 | 106 | 101 | 106 | 122 | 107
7 | CC[C@H](Nc1ncnc2[nH]cnc12)c1nc2cccc(F)c2c(=O)n1-c1ccccc1 [GS-1101] (100 nM) | 93.3 | 94 | 105 | 100 |  | 93.9 | 84.8 | 105 | 107 | 87.8 | 103 | 78 | 102 | 97.6 | 80.1 | 93 | 94 | 93.3 | 96.8 | 93.1 | 84.8 | 96.1 | 85.2 | 84.1 | 90.4 | 92 | 95.1 | 98.5 | 90.8 | 86.8 | 91.9 | 94.6 | 102 | 90 | 92.7 | 93 | 102
8 | CC(=O)Nc1cccc(-n2c(=O)n(C3CC3)c(=O)c3c(Nc4ccc(I)cc4F)n(C)c(=O)c(C)c32)c1 [Trametinib] (2.5 nM) | 117 | 89.9 | 98.6 | 103 | 80.7 | 86.5 |  | 94.2 | 112 | 117 | 120 | 72.4 | 96.3 | 82.8 | 101 | 100 | 117 | 112 | 90.8 | 70.1 | 109 | 99.1 | 98.4 | 47.4 | 97.4 | 86.5 | 100 | 89.3 | 86.8 | 93.3 | 106 | 101 | 24.3 | 96.1 | 94 | 99.2 | 102
9 | CCCS(=O)(=O)Nc1ccc(F)c(C(=O)c2c[nH]c3ncc(-c4ccc(Cl)cc4)cc23)c1F [Vemurafenib] (100 nM) | 76.9 | 103 | 108 | 97.9 | 91.9 | 102 |  | 94.2 | 82.2 | 92.1 | 98.4 | 94.2 | 97.7 | 96.1 | 72.4 | 98.3 | 94 | 88.6 | 95.9 | 94.3 | 79.3 | 93.9 | 84.8 | 96.8 | 91.8 | 93.4 | 97.9 | 94.7 | 97.7 | 91.7 | 89.4 | 93.3 | 86.5 | 95.9 | 96.9 | 95.5 | 97.3
